Measured values taken from ChEMBL document CHEMBL1201862, “PubChem BioAssay data set” (2004).
Values belong to the molecule of their own block, whether it stands above or below them. Activity calls are given as the source filed them.

Legend:
[1] = molecular target: DNA damage-inducible transcript 3 protein (Mus musculus, UniProt P35639); type: functional, Cricetulus griseus
[2] = molecular target: T1, Heat shock factor protein 1 (Mus musculus, UniProt P38532); experiment: decrease of HSF1-responsive luciferase luminescence – cell-based, NIH3T3, dose retest, confirmation (AID 2382); type: functional;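 also: NIH3T3 fibroblasts with HSF1-driven luciferase reporter stressed by proteasome inhibitor MG132; luminescence from HSF1-driven luciferase expression after 8 hours of MG132 stress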
T1 sequence (P38532 whole entry): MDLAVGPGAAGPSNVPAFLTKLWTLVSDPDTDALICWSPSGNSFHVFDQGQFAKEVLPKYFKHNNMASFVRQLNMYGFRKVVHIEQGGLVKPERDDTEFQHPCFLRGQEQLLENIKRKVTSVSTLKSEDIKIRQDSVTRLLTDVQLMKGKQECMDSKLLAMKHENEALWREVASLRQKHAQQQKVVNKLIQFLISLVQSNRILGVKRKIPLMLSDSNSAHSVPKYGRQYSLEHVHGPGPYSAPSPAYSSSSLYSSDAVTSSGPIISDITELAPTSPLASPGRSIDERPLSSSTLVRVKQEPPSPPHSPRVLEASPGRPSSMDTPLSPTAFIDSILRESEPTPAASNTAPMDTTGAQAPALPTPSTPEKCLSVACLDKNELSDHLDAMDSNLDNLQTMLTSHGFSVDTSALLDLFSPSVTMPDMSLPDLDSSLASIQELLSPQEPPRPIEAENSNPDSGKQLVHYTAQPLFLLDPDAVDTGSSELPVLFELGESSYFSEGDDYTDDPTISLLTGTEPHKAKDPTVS

BJ [3] = experiment: BJ-TERT-LT-ST fibroblast viability loss – cell-based, RAS-independent, luminescence, dose response (AID 1935); type: functional; details: Homo sapiens;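 also: BJ fibroblasts immortalized with TERT plus LT and ST oncogenes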
BJ [4] = experiment: cells; type: functional, cell-based; details: Homo sapiens
BJ [5] = experiment: BJ-TERT fibroblast viability loss – cell-based, RAS-independent, luminescence, dose response (AID 1933); type: functional; details: Homo sapiens
X-box-binding protein 1 = molecular target: T2, X-box-binding protein 1 (Homo sapiens, UniProt P17861); type: functional, Cricetulus griseus;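 also: confirmatory dose-response counter-screen serving a CHOP assay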
T2 sequence (P17861 whole entry): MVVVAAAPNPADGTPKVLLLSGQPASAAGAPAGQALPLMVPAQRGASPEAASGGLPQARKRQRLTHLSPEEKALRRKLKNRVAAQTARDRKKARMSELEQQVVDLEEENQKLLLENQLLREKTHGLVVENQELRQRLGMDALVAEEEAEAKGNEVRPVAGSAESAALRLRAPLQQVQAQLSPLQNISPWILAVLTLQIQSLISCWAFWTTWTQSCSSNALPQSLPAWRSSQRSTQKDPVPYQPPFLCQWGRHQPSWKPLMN

A-375 = experiment: MITF: Counter assay: A375 proliferation Measured in Cell-Based System Using Plate Reader - 2084-03_Inhibitor_Dose_DryPowder_Activity. [Related pubchem assays (depositor defined):AID488944]; type: functional; details: Homo sapiens
[6] = molecular target: T3, Microphthalmia-associated transcription factor (Homo sapiens, UniProt O75030); experiment: reducers of TRPM1 reporter luminescence, concentration series – cell-based, SK-MEL-5, cherry-picked, set 3, MITF inhibitor project, dose response (AID 493073); type: functional;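 also: SK-MEL-5 melanoma cells with luciferase driven by the MITF target TRPM1 promoter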
T3 sequence (O75030 whole entry): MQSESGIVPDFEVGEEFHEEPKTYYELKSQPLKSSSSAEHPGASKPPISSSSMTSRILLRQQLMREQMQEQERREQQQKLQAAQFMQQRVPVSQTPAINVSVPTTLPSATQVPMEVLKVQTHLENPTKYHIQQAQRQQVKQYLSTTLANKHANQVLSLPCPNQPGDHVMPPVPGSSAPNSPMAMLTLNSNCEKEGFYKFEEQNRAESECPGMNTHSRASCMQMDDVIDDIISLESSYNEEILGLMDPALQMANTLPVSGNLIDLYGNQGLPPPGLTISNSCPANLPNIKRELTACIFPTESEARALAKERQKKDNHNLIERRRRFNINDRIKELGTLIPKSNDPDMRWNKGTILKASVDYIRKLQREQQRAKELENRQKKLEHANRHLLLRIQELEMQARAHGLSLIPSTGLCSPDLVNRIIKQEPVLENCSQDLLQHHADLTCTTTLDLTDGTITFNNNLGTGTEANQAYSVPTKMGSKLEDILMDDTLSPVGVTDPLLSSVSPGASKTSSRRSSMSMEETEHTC

[7] = DRD fibroblast viability loss – cell-based, non-viral oncogenic, luminescence, dose response (AID 1934); type: functional; details: Homo sapiens
CAAX prenyl protease 2 [8] = molecular target: CAAX prenyl protease 2 (Homo sapiens, UniProt Q9Y256); experiment: inhibition of Ras-converting CAAX protease Rce1 – biochemical, yeast membranes, quenched-peptide fluorescence, cherry-pick, dose response (AID 588849)
Trypsin = Trypsin (Sus scrofa, UniProt P00761); experiment: trypsin protease activity blockade – biochemical, quenched peptide fluorescence, cherry-pick, selectivity assay for Rce1 protease inhibitor project, dose response (AID 488789)
CAAX prenyl protease 2 [9] = molecular target: CAAX prenyl protease 2 (Saccharomyces cerevisiae S288c, UniProt Q03530); type: biochemical
Escherichia coli = experiment: microbe, parasite or virus in culture
[10] = Luminescence Cell-Based Dose Retest to Confirm Inhibitors of Cancer Stem Cells. [Related pubchem assays (depositor defined):AID2717, AID2721]; type: functional; details: Homo sapiens
[11] = molecular target: T4, Endoribonuclease toxin MazF (Escherichia coli K-12, UniProt P0AE70); experiment: substrate-only fluorescence increase artefacts – biochemical, single-stranded RNase substrate, counter-screen for MazEF activator project, dose response (AID 588502); type: functional
[12] = molecular target: T4, Endoribonuclease toxin MazF; experiment: activation of MazEF endoribonuclease cleavage – biochemical, fluorescence, single-stranded RNA substrate, uHTS hits, dose response (AID 588481); type: functional

T4 sequence (P0AE70 whole entry): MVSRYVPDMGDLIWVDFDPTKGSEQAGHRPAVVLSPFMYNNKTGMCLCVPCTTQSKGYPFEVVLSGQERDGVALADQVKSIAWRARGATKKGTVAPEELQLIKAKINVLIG
DNA damage-inducible transcript 3 protein, sequence (P35639 whole entry): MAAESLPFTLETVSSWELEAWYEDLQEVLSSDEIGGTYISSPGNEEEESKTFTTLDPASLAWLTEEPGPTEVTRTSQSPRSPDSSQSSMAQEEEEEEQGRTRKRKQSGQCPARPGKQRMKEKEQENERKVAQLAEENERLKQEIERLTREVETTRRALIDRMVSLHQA
Trypsin, sequence (P00761 whole entry): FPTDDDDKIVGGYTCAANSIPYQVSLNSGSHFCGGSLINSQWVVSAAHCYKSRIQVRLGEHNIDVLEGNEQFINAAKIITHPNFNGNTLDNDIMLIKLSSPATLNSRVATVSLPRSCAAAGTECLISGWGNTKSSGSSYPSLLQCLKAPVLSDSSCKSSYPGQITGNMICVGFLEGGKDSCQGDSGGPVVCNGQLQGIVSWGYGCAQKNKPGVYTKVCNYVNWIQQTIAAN
CAAX prenyl protease 2 (Saccharomyces cerevisiae S288c, UniProt Q03530), sequence (Q03530 whole entry): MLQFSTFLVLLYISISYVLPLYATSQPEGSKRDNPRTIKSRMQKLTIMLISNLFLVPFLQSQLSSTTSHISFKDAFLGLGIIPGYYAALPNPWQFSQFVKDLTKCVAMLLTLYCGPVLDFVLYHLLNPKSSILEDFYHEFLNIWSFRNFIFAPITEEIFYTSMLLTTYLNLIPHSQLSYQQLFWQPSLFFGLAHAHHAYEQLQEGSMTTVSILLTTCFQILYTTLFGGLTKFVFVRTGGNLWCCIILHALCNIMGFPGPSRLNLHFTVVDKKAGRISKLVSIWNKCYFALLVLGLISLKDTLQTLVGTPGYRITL
CAAX prenyl protease 2 (Homo sapiens, UniProt Q9Y256), sequence (Q9Y256 whole entry): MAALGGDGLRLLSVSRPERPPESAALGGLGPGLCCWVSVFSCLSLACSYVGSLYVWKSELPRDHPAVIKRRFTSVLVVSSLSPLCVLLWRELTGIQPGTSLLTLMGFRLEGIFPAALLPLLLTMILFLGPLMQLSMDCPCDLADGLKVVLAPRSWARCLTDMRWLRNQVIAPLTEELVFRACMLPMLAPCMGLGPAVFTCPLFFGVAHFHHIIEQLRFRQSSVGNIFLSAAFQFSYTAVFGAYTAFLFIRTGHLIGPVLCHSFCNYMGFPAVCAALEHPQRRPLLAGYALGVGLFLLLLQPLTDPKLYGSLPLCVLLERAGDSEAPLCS

SMILES: O=C(N/N=C/c1ccccc1Cl)c1[nH]nc2c1CCCC2
Absolute IC50 (CHOP) [1]: 10 µM
EC50 [2]: 16 µM (active)
EC50 (BJ [3]): > 150 µM (inconclusive)
EC50 (BJ [4]): 18.2 µM (active)
EC50 (BJ [5]): 16.4 µM (active)
Absolute IC50 (XBP1) (X-box-binding protein 1): 10 µM
AC50 (A-375): 48.5 µM (active)
AC50 [6]: 7.97 µM (active)
EC50 [7]: 15.8 µM (active)

AC50 (CAAX prenyl protease 2 [8]): 13.6 µM (active)
AC50 (Trypsin): 7.25 µM (active)
AC50 (CAAX prenyl protease 2 [9]): 24.8 µM (active)
SMILES: CCN(CC)c1ccc(/C=N/NC(=S)NCc2ccc(OC)cc2)cc1

SMILES: COc1ccc(-c2cc([C@H]3[C@@H]4C=CCC[C@@]4(C)C(=O)N3Cc3ccccc3)ccc2F)cc1
AC50 (Escherichia coli): 121 µM (active)
AC50 [10]: 3.42 µM (active)

SMILES: C=CCn1c(=N)c(S(=O)(=O)c2ccc(C)c(C)c2)cc2c(=O)n3ccccc3nc21
EC50 [11]: 52.2 µM (inactive)
EC50 [12]: 31.9 µM (inactive)
